Laboratory results as given in ChEMBL document CHEMBL5465560, “Selectivity Literature for EUbOPEN Chemogenomic Library” (2024).

Tests used:
[1] = molecular target: Ribosomal protein S6 kinase alpha-2 (Homo sapiens) (UniProt Q15349); conditions: at 10 µM
[2] = molecular target: Leucine-rich repeat serine/threonine-protein kinase 2 (Homo sapiens, UniProt Q5S007); assay: Selectivity interaction (Adapta Assay) EUB0001632a LRRK2; conditions: at 10 µM
[3] = molecular target: Protein arginine N-methyltransferase 3 (Homo sapiens, UniProt O60678); assay: Selectivity interaction (Methyltransferase screen (radiometric assays, panel of 8 PRMTs, 21 protein lysine methyltransferases, 3 DNA methyltransferases, and one RNA methyltransferase)) EUB0000272b PRMT3
[4] = molecular target: Cholecystokinin receptor type A (Homo sapiens) (UniProt P32238); assay: Selectivity interaction (Panel of non-epigenetic targets (kinases, GPCRs, ion channels, and transporters, Eurofins) ) EUB0000271b CCKAR; conditions: at 1 µM
[5] = molecular target: T1, Receptor-interacting serine/threonine-protein kinase 4 (Homo sapiens) (UniProt P57078); assay: Selectivity interaction (KinomeScan (DiscoverX)) EUB0000595a RIPK4; conditions: at 10 µM
T1 sequence (whole entry): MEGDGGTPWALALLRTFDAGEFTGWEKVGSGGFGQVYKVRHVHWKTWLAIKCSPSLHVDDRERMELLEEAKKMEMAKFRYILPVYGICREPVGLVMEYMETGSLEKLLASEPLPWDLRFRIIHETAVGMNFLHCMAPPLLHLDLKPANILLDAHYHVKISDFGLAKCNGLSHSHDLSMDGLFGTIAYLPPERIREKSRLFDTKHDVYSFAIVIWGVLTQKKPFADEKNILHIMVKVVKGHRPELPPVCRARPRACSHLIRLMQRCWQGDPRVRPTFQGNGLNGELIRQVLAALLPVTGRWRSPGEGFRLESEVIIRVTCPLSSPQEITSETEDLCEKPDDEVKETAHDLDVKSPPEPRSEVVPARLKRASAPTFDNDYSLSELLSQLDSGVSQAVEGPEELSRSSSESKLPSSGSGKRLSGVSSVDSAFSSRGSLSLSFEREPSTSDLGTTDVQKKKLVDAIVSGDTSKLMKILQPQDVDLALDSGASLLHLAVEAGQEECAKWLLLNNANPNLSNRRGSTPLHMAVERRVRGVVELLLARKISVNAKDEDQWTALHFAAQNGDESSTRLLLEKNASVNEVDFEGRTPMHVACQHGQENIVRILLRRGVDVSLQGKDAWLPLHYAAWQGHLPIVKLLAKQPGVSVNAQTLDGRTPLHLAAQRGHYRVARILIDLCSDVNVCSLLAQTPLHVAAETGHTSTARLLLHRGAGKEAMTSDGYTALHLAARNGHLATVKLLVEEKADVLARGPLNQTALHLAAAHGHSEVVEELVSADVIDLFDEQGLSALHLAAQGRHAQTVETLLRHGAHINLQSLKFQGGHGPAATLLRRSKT

[6] = molecular target: T2, Dual specificity tyrosine-phosphorylation-regulated kinase 2 (Homo sapiens) (UniProt Q92630); assay: Selectivity interaction (ProQinase) EUB0000171b DYRK2
T2 sequence (whole entry): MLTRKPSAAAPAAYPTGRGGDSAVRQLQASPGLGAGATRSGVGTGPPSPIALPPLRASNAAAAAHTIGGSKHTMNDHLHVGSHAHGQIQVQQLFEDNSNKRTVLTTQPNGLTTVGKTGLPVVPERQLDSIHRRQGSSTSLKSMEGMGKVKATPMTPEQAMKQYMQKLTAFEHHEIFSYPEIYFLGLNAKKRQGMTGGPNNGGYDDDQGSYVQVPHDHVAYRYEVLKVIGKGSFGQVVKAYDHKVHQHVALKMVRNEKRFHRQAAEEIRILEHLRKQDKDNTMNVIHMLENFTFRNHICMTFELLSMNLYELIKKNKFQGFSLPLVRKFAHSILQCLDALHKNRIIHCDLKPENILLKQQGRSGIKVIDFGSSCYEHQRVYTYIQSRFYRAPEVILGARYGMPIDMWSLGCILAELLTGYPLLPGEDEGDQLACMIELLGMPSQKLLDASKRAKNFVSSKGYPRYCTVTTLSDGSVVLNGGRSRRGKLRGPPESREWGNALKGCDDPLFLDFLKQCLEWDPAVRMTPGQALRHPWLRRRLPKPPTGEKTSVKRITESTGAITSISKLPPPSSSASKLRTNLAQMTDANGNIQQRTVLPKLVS

[7] = molecular target: T3, Mitogen-activated protein kinase kinase kinase kinase 3 (Homo sapiens) (UniProt Q8IVH8); assay: Selectivity interaction (KinomeScan (DiscoverX)) EUB0000655a MAP4K3; conditions: at 10 µM
T3 sequence (whole entry): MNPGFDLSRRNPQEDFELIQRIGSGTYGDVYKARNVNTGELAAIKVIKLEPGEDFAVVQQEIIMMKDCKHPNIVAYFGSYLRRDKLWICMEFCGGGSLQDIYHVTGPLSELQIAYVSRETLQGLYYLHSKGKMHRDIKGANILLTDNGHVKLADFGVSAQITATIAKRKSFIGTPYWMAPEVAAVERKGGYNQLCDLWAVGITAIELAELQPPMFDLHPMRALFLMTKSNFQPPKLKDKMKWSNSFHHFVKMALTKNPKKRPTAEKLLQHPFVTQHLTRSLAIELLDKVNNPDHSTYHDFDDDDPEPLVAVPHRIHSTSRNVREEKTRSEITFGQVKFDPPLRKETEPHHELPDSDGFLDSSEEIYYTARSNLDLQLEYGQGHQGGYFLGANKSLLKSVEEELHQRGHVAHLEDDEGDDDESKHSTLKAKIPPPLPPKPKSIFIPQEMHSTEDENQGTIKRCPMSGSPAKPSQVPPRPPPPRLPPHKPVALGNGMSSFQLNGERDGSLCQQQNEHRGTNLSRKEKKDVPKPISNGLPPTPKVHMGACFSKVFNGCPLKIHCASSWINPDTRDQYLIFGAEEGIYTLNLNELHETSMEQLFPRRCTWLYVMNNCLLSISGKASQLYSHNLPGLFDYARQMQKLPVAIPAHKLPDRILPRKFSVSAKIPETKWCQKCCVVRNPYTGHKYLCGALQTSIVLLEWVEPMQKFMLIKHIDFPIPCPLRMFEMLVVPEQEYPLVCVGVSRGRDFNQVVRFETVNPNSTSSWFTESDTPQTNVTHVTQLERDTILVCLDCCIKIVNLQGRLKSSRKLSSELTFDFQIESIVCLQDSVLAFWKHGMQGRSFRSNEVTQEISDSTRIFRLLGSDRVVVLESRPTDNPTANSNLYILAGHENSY

[8] = molecular target: Mitogen-activated protein kinase kinase kinase 11 (Homo sapiens) (UniProt Q16584); assay: Selectivity interaction (KinomeScan (DiscoverX)) EUB0000655a MAP3K11; conditions: at 10 µM
[9] = molecular target: Tyrosine-protein kinase JAK1 (Homo sapiens, UniProt P23458); assay: Selectivity interaction (KinomeScan (DiscoverX)) EUB0001619a JAK1; conditions: at 1 µM
[10] = molecular target: Myosin-IIIa (Homo sapiens) (UniProt Q8NEV4); assay: Selectivity interaction (KinomeScan (DiscoverX)) EUB0000607a MYO3A; conditions: at 10 µM
[11] = Selectivity interaction (KinomeScan (DiscoverX)) EUB0000666a CDPK1; conditions: at 10 µM

Sequence of Protein arginine N-methyltransferase 3 (O60678 2-531 limits assumed): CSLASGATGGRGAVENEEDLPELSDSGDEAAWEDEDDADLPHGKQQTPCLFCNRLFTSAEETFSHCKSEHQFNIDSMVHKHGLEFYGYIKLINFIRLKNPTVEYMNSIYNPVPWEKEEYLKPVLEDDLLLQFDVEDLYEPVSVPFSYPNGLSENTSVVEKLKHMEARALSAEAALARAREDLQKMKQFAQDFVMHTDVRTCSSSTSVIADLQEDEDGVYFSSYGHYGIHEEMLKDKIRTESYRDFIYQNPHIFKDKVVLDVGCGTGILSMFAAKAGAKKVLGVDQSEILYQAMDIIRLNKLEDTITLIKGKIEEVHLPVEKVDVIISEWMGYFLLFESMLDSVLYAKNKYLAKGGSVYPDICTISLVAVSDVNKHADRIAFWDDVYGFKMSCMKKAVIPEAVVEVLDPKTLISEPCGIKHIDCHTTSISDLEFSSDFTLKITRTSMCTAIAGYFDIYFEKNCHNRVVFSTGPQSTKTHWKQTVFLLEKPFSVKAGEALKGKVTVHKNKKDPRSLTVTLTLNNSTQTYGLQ
Sequence of Leucine-rich repeat serine/threonine-protein kinase 2 (Q5S007 whole entry): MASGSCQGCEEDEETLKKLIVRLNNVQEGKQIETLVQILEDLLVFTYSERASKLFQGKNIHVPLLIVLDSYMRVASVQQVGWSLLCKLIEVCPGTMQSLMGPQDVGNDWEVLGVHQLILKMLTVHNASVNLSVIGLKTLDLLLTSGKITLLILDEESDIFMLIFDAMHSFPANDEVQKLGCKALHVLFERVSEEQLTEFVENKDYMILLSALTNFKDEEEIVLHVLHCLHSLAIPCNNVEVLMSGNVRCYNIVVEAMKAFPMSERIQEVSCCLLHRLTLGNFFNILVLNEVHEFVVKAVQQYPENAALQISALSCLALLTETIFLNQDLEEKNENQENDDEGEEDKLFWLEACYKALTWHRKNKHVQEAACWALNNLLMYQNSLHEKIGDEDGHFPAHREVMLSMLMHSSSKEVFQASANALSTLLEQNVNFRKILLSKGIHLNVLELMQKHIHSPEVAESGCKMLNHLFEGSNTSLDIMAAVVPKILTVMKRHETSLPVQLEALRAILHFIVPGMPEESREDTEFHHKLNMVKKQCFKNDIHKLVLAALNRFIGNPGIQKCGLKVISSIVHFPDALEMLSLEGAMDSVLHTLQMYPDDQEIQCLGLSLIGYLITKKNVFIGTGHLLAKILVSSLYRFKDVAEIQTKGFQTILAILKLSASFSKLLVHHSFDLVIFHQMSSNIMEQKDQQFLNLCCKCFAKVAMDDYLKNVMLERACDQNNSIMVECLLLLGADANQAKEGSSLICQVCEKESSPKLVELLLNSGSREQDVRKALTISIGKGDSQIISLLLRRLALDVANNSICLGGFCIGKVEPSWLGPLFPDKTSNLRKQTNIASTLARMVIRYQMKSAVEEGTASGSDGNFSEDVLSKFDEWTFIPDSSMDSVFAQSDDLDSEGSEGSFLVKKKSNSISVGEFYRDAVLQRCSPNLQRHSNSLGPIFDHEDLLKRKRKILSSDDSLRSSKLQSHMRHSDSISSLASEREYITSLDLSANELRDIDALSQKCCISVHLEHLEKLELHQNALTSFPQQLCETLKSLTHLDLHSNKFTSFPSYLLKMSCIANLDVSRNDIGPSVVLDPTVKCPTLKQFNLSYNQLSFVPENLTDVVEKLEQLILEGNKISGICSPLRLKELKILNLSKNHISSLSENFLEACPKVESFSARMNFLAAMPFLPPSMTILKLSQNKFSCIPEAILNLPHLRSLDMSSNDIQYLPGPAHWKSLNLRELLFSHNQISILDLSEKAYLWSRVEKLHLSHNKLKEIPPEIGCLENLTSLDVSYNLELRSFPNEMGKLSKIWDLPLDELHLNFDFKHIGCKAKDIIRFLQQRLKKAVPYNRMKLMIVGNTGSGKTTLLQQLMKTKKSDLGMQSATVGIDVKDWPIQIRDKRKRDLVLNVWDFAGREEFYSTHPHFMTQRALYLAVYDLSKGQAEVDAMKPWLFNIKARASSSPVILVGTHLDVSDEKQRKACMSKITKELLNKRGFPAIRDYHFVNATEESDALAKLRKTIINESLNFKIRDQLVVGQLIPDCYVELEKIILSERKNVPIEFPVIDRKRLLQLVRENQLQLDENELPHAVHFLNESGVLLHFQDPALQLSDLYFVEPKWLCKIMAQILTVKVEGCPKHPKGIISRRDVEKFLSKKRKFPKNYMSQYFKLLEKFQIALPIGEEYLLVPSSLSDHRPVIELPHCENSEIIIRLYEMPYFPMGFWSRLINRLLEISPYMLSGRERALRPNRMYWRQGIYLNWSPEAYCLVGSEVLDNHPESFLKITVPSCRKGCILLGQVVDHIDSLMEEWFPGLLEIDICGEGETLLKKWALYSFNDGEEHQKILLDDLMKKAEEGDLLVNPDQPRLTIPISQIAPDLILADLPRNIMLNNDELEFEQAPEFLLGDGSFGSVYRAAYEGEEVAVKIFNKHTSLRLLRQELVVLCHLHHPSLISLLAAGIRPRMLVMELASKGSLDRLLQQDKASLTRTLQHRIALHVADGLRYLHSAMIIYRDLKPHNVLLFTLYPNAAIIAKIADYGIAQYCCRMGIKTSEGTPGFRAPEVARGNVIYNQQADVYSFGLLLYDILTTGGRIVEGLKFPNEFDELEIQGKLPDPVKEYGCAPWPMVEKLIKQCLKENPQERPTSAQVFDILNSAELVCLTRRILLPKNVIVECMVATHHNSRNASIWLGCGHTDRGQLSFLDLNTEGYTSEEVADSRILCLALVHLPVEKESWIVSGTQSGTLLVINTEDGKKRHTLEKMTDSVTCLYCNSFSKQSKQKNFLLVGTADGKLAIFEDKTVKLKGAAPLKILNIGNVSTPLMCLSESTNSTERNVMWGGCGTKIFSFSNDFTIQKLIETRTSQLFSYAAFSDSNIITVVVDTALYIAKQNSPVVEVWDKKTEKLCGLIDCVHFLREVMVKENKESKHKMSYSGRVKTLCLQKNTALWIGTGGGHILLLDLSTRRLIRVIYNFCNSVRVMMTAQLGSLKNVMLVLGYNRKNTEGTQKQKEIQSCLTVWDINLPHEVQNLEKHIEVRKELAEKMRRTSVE
Sequence of Ribosomal protein S6 kinase alpha-2 (Homo sapiens) (Q15349 whole entry): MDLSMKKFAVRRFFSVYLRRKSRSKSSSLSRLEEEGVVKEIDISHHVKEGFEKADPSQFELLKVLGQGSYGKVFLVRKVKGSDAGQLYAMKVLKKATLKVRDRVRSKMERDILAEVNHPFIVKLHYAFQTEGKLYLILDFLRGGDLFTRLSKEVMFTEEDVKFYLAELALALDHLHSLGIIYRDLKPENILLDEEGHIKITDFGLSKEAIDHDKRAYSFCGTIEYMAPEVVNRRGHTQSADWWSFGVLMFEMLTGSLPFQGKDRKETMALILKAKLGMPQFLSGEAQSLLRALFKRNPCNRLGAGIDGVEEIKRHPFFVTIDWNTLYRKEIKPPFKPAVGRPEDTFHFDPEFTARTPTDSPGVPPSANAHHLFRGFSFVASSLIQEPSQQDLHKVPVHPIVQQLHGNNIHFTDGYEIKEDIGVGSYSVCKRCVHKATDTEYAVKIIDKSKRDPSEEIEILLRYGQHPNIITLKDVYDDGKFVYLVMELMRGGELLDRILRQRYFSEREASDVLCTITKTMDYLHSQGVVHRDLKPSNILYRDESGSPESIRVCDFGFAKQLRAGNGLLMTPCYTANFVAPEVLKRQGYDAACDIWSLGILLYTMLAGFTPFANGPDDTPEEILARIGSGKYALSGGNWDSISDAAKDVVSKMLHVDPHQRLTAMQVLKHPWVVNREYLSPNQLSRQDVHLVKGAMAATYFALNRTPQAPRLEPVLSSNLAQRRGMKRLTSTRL
Sequence of Tyrosine-protein kinase JAK1 (P23458 whole entry): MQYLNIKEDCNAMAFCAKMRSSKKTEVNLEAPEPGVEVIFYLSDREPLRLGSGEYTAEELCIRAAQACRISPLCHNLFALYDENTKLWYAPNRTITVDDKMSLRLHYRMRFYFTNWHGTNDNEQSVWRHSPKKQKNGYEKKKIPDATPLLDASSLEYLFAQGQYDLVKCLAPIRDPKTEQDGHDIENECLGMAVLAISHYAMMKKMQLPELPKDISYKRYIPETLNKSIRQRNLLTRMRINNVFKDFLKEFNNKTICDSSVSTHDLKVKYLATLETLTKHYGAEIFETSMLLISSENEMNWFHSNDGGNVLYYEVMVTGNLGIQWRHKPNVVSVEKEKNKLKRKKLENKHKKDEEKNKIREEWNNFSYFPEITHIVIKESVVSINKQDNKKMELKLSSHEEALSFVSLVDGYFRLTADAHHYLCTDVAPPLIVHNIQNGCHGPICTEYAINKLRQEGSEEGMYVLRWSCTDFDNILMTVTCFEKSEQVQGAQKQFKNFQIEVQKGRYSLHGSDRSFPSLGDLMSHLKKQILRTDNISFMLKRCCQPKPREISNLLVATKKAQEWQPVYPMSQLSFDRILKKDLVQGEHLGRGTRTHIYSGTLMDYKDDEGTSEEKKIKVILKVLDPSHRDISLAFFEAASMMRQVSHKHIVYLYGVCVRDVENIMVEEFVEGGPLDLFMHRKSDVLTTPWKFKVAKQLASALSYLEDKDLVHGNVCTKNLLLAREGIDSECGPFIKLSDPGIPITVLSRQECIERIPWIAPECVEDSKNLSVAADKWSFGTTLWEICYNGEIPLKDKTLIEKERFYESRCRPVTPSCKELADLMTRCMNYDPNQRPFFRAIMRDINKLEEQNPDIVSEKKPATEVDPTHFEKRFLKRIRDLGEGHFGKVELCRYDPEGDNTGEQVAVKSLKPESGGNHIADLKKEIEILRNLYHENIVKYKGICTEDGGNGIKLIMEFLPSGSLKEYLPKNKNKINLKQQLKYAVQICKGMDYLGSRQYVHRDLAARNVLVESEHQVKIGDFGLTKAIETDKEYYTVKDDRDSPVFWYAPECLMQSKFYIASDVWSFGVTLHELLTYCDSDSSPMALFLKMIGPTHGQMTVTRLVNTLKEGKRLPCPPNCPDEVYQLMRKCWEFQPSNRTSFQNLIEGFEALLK

Cc1cc([C@@H](C)Nc2ccccc2C(=O)O)c2nc(N3CCOCC3)cc(=O)n2c1 [AZD-6482]
% of control [1]: 98%

Cn1cc(-n2cnc3c(NCc4nc5cc(Cl)c(Cl)cc5[nH]4)nc(N4CCOCC4)nc32)cn1
% of inhibition [2]: 100%

Cc1cc(C)cc([C@H]2c3cc(C)ccc3NC(=O)CN2C(=O)c2ccc(Br)s2)c1
% of activity ([3]; at 1 µM): 102%
% of activity ([3]; at 10 µM): 102%

Cc1cc(C)cc([C@@H]2c3cc(C)ccc3NC(=O)CN2C(=O)c2ccc(Br)s2)c1
% of inhibition [4]: 1%

COCC(=O)NC/C=C/c1ccc2ncnc(Nc3ccc(Oc4ccc(C)nc4)c(C)c3)c2c1 [CP-724714]
% of control [5]: 100%

C=CC(=O)Nc1cccc(C(=O)Nc2ccc(Nc3cc(-c4[nH]c(SC)nc4C)ccn3)cc2)c1
% of control ([6]; at 1 µM): 72%
% of control ([6]; at 5 µM): 30%

CN(C)CCOc1ccc(-c2nc(-c3ccncc3)c(-c3ccc4c(c3)CC/C4=N\O)[nH]2)cc1
% of control [7]: 98%
% of control [8]: 100%

N#Cc1cccc(-c2c[nH]c3ncnc(N4CCOCC4)c23)c1
% of control [9]: 94%

CNC(=O)Nc1ccc(-c2nc(N3CC4CCC(C3)O4)c3cnn(C4CCC5(CC4)OCCO5)c3n2)cc1
% of control [10]: 52%

O=C(NOC[C@H](O)CO)c1ccc(F)c(F)c1Nc1ccc(I)cc1F
% of control [11]: 78%
